Measurements published in the Biogen ADME set (Fang et al. 2023).
In brackets after ≈: the same amount, converted by molar mass.

Conditions: for aqueous solubility: pH 6.8

Row | Compound | MDR1-MDCK efflux ratio | intrinsic clearance, human liver microsomes | intrinsic clearance, rat liver microsomes | aqueous solubility | fraction unbound, human plasma | fraction unbound, rat plasma
1 | CCN(CC)CCCNc1ncc(-c2cc(C)no2)c(-c2ccco2)n1 | 17.5 | 5.13 mL/min/kg | 312 mL/min/kg | 69.8 µg/mL (≈ 196 µM) | – | –
2 | Cc1ccccc1S(=O)(=O)N[C@@H]1CC[C@@H](O)[C@@H]1O | – | ≤ 4.74 mL/min/kg | 17.7 mL/min/kg | – | – | –
3 | CCCC(=O)Nc1ccc(-n2cccn2)nc1 | 0.559 | ≤ 4.74 mL/min/kg | 31.8 mL/min/kg | 45.2 µg/mL (≈ 196 µM) | – | –
4 | CCN1CCC(Oc2ncnc3c2c(C)c(C)n3C2CCCCC2)CC1 | – | 31.7 mL/min/kg | 725 mL/min/kg | – | – | –
5 | CNc1ccc(/C=C/C=C/c2nc3ccc(O)cc3s2)cn1 | – | – | – | 0.22 µg/mL (≈ 0.711 µM) | – | –
6 | CC(=O)Nc1ccc(Oc2ncnc3scc(-c4ccccc4)c23)cc1 | 0.804 | 39 mL/min/kg | 438 mL/min/kg | 8.9 µg/mL (≈ 24.6 µM) | – | –
7 | CCCNC(=O)c1c(C)nn(-c2ccccc2)c1C | 0.668 | 13.1 mL/min/kg | 2060 mL/min/kg | 30.7 µg/mL (≈ 119 µM) | – | –
8 | O=c1c2cccn2c2ccccc2n1CCCN1CCC(c2ccc(Cl)cc2)CC1 | 5.19 | 183 mL/min/kg | 1330 mL/min/kg | 19.8 µg/mL (≈ 47 µM) | – | –
9 | O[C@@H]1C[C@@H](c2nc(-c3ccccc3)no2)N(Cc2ccccc2)C1 | 0.539 | 54.2 mL/min/kg | 908 mL/min/kg | 41.6 µg/mL (≈ 129 µM) | – | –
10 | Cc1noc(C(C)C)c1C(=O)Nc1ccccn1 | 0.524 | 28.4 mL/min/kg | 510 mL/min/kg | 58.3 µg/mL (≈ 238 µM) | – | –
11 | Fc1cccc(Cn2nnc(-c3ccccc3)n2)c1F | 0.358 | – | – | 0.1 µg/mL (≈ 0.367 µM) | – | –
12 | O=C(Nc1nc2cccc(-c3ccc(CN4CCS(=O)(=O)CC4)cc3)n2n1)C1CC1 | 136 | ≤ 4.74 mL/min/kg | 19.4 mL/min/kg | 47.1 µg/mL (≈ 111 µM) | 0.48 | 0.4
13 | O=C(CC(=O)N1CCCC1)N1CCCC1 | 2.82 | ≤ 4.74 mL/min/kg | ≤ 10.7 mL/min/kg | 30.7 µg/mL (≈ 146 µM) | – | –
14 | c1nc(NC2CCN(C3CC3)CC2)c2sccc2n1 | 1.24 | 17.4 mL/min/kg | 80.6 mL/min/kg | 56.2 µg/mL (≈ 205 µM) | – | –
15 | N#Cc1ccccc1OCn1nnc2ccccc2c1=O | – | – | – | 0.65 µg/mL (≈ 2.34 µM) | – | –
16 | Cc1cn(CCN2CCN(c3ccccc3-c3cc(C#N)cc(C(=O)NCCCN4CCCC4)c3)CC2)c2ccccc12 | 0.338 | 120 mL/min/kg | 190 mL/min/kg | 31.7 µg/mL (≈ 55.2 µM) | – | –
17 | Cc1cccc2sc(NC(=O)c3cccnc3)nc12 | 0.329 | – | – | 0.52 µg/mL (≈ 1.93 µM) | – | –
18 | CS(=O)(=O)c1ccc(-c2nnc(/C=C/c3nnc(-c4ccc(C#N)cc4)o3)n2-c2ccccc2Cl)nc1 | 38.3 | – | – | 0.9 µg/mL (≈ 1.7 µM) | – | –
19 | CC(=O)NC1CCN(Cc2cccc(-c3cccnc3)c2)CC1 | 13.6 | 6.04 mL/min/kg | 42.3 mL/min/kg | 25.8 µg/mL (≈ 83.4 µM) | – | –

Row | Compound | MDR1-MDCK efflux ratio | intrinsic clearance, human liver microsomes | intrinsic clearance, rat liver microsomes | aqueous solubility | fraction unbound, human plasma | fraction unbound, rat plasma
20 | N#Cc1c(N2CCCC2)oc2nc3ccccc3nc12 | – | – | – | 0.3 µg/mL (≈ 1.14 µM) | – | –
21 | N=C1/C(=C\c2ccco2)C(=O)N=C2Sc3ccccc3N12 | – | – | – | 0.73 µg/mL (≈ 2.47 µM) | – | –
22 | Cc1ccc(C(=O)NCCc2csc(C)n2)cn1 | 0.918 | 7.45 mL/min/kg | 11.3 mL/min/kg | 40.4 µg/mL (≈ 155 µM) | – | –
23 | Cn1cccc(C(=O)NCc2nc(C(C)(C)C)no2)c1=O | 1.44 | ≤ 4.74 mL/min/kg | 137 mL/min/kg | – | – | –
24 | CCOc1nc(-c2ccc(Cl)c(Cl)c2)n(-c2cccc(NC(=O)c3ccc(F)cc3)c2)n1 | 2.67 | – | – | 0.25 µg/mL (≈ 0.53 µM) | – | –
25 | CC(C)(CO)NCCCCn1c2ccccc2c2ccccc21 | 7.39 | 54.2 mL/min/kg | 163 mL/min/kg | 31.8 µg/mL (≈ 102 µM) | – | –
26 | Cc1nn(C)c(C)c1-c1cc(C(C)(C)C)nc(N2CCN(C)CC2)n1 | 1.81 | 17.5 mL/min/kg | 4620 mL/min/kg | – | – | –
27 | Nc1ncnc2c1c(-c1ccc(Oc3ccccc3)cc1)nn2[C@@H]1CCCNC1 | 21 | 35 mL/min/kg | 103 mL/min/kg | 40 µg/mL (≈ 103 µM) | 0.0905 | 0.0702
28 | CCc1cc(N(C)Cc2ccc(N)nc2)nc(C)n1 | 1.99 | ≤ 4.74 mL/min/kg | ≤ 10.7 mL/min/kg | 36.5 µg/mL (≈ 142 µM) | – | –
29 | O=C(Nc1cccc2ncccc12)[C@H]1CCCN(S(=O)(=O)c2ccccc2)C1 | 13 | 37.9 mL/min/kg | 545 mL/min/kg | – | 0.167 | 0.123
30 | CCCCc1nc2cc(/C=C/C(=O)NO)ccc2n1CCN(CC)CC | 28.3 | ≤ 4.74 mL/min/kg | 366 mL/min/kg | 57.5 µg/mL (≈ 160 µM) | – | –
31 | NC1(c2ccc(-c3nc4ccn5c(=O)[nH]nc5c4cc3-c3ccccc3)cc2)CCC1 | – | 14.7 mL/min/kg | 17.1 mL/min/kg | – | – | –
32 | COCC(=O)Nc1cccc(-n2cccc2)c1 | 0.498 | 205 mL/min/kg | 129 mL/min/kg | 50.9 µg/mL (≈ 221 µM) | – | –
33 | CC(=O)c1c(C)n(S(=O)(=O)c2ccc(C)cc2)c2ccc(NS(=O)(=O)c3ccc(C)cc3)cc12 | – | – | – | 0.53 µg/mL (≈ 1.07 µM) | – | –
34 | CN(CCSc1ccc2nnnn2n1)Cc1ccccc1 | 0.431 | 64.7 mL/min/kg | ≤ 10.7 mL/min/kg | – | – | –
35 | O=C(Nc1ccccc1)Nc1ccc(OC(F)(F)F)cc1 | 0.328 | – | – | 0.8 µg/mL (≈ 2.7 µM) | – | –
36 | Cc1ccc(NC(=O)Cc2c[nH]c3ccccc23)cc1 | – | – | – | 5.6 µg/mL (≈ 21.2 µM) | – | –
37 | CCN1CCC(Nc2nc(C)cc(C)c2C#N)CC1 | 1.24 | 6.73 mL/min/kg | 2490 mL/min/kg | 43.4 µg/mL (≈ 168 µM) | – | –

The next lines start with the values.

Row | MDR1-MDCK efflux ratio | intrinsic clearance, human liver microsomes | intrinsic clearance, rat liver microsomes | aqueous solubility | fraction unbound, human plasma | fraction unbound, rat plasma | Compound
38 | 14.7 | ≤ 4.74 mL/min/kg | 16.1 mL/min/kg | – | – | – | CCc1nc(CN2CCC(=O)Nc3cc(F)ccc32)n[nH]1
39 | 1.15 | 12.8 mL/min/kg | 256 mL/min/kg | 39.8 µg/mL (≈ 118 µM) | – | – | CO[C@@H](C(=O)Nc1cc2c(C)cc(=O)oc2cc1C)c1ccccc1
40 | 11.9 | 423 mL/min/kg | 2100 mL/min/kg | – | – | – | CCOc1ccc(CNC(=O)Cn2ccc3cc(S(=O)(=O)N4CCCC4)ccc32)cc1
41 | – | 10.2 mL/min/kg | 131 mL/min/kg | – | – | – | COCc1ncc(CN2CCC(Oc3cccc(C)c3)CC2)cn1
42 | 24 | 17.4 mL/min/kg | 190 mL/min/kg | – | – | – | Cc1cc2nc(CCC(=O)N3CCc4n[nH]cc4C3)[nH]c2cc1C
43 | 1.08 | 216 mL/min/kg | 2610 mL/min/kg | 10 µg/mL (≈ 27.5 µM) | – | – | Cc1ccc(NC(=O)CN2CCCC(c3nc4ccccc4o3)C2)cc1C (configuration not stated)
44 | 13.3 | 158 mL/min/kg | 473 mL/min/kg | 54 µg/mL (≈ 124 µM) | – | – | CCn1cc(CN2CCC(c3nc(N(C)C)ncc3-c3ccc(OC)cc3)CC2)c(C)n1
45 | 0.882 | 66.3 mL/min/kg | 577 mL/min/kg | – | – | – | COc1cccc(O[C@H]2CCN(C(=O)c3cc(-c4ccc(F)cc4)on3)CC[C@@H]2O)c1
46 | 0.764 | 84.1 mL/min/kg | 258 mL/min/kg | 18.2 µg/mL (≈ 83.4 µM) | – | – | COc1cccc(-c2cccc(N)n2)c1F
47 | – | 52 mL/min/kg | 247 mL/min/kg | – | – | – | COc1ccc(CNC(=O)CCSc2nc3c(=O)n(C)c(=O)n(C)c3n2C)cc1
48 | 0.542 | 5.78 mL/min/kg | 85.5 mL/min/kg | – | – | – | COc1cc2c(cc1OC)[C@@H]1Cc3ccc(OC)c(OC)c3CN1CC2
49 | – | 81.6 mL/min/kg | 821 mL/min/kg | 39.5 µg/mL (≈ 111 µM) | – | – | COc1cc(CCNC(=O)c2nc3cccc(C)n3c2F)cc(OC)c1
50 | – | 34.1 mL/min/kg | 209 mL/min/kg | – | – | – | Cc1cnc(Nc2ccc(OCCN3CCCC3)cc2)nc1Nc1cccc(S(=O)(=O)NC(C)(C)C)c1
51 | – | – | – | 0.95 µg/mL (≈ 2.85 µM) | – | – | O=C(Cc1ccc2c(c1)CCCC2)Nc1ccc(-n2cnnn2)cc1
52 | 0.488 | 18.3 mL/min/kg | 390 mL/min/kg | – | – | – | CCOC1CCN(c2ccnc(C(=O)NCc3ccccc3)c2)CC1
53 | 122 | 120 mL/min/kg | 235 mL/min/kg | – | – | – | CCCc1cc(C)nc(O)c1CNC(=O)c1cc(-c2ccc(N3CCN(C(C)C)CC3)nc2)cc2c1cnn2C(C)C
54 | 17.8 | 36.9 mL/min/kg | 74.1 mL/min/kg | 56.3 µg/mL (≈ 168 µM) | – | – | Cc1ccc2nc3c(c(C(=O)NCc4cnn(C)c4)c2c1)CCCC3
55 | 1.23 | 59.5 mL/min/kg | 1030 mL/min/kg | 29.2 µg/mL (≈ 86.4 µM) | – | – | Cc1ccc(C)c(OCCN(C)C(=O)c2ccc3c(c2)nnn3C)c1
56 | 7.85 | 18.2 mL/min/kg | 277 mL/min/kg | 40.8 µg/mL (≈ 107 µM) | – | – | COC(=O)c1ccc(NC(=O)N(C)Cc2ccccc2CN2CCCC2)cc1
57 | 2.26 | – | – | 0.81 µg/mL (≈ 1.84 µM) | – | – | COc1ccccc1-n1cc2c(c1-c1ccccc1Br)c(=O)n(C)c(=O)n2C
58 | 1.89 | 81.4 mL/min/kg | 2150 mL/min/kg | 41.8 µg/mL (≈ 114 µM) | – | – | COc1ccccc1-c1ccc(CC2(C(=O)NC3CC3)CCOCC2)cc1
59 | – | – | – | 0.35 µg/mL (≈ 1.09 µM) | – | – | COc1cccc2c1Oc1nc(-c3ccccc3)[nH]c(=S)c1C2
